Test results published in ChEMBL document CHEMBL4342403, “New evolutions in the BACE1 inhibitor field from 2014 to 2018” (Bioorg Med Chem Lett, 2019).
Values belong to the compound of their own block, whether it stands above or below them.

What was measured:
[1] = test system: Homo sapiens; test: In vivo inhibition of BACE1 in human assessed as reduction in amyloidbeta40 level in CSF at 12 mg administered once daily for 7 days relative to baseline; assay type: functional
[2] = test system: Homo sapiens; test: In vivo inhibition of BACE1 in human assessed as reduction in amyloidbeta40 level in CSF at 40 mg administered once daily for 7 days relative to baseline; assay type: functional
[3] = test system: Homo sapiens; test: In vivo inhibition of BACE1 in human assessed as reduction in amyloidbeta40 level in CSF at 60 mg administered once daily for 7 days relative to baseline; assay type: functional
[4] = test system: Homo sapiens; test: In vivo inhibition of BACE1 in human assessed as reduction in amyloidbeta(1 to 42 residues) level in CSF at 50 mg, qd administered up to 14 days relative to control; assay type: functional
[5] = test system: Homo sapiens; test: In vivo inhibition of BACE1 in human assessed as reduction in amyloidbeta(1 to 42 residues) level in CSF at 125 mg, qd administered up to 14 days relative to control; assay type: functional
[6] = test system: Homo sapiens; test: In vivo inhibition of BACE1 in human assessed as reduction in amyloidbeta(1 to 42 residues) level in CSF at 275 mg, qd administered up to 14 days relative to control; assay type: functional
[7] = Dissociation constant, pKa of the compound; assay type: physicochemical
[8] = test system: Homo sapiens; test: In vivo inhibition of BACE1 in human assessed as reduction in amyloidbeta40 level in CSF at 25 mg relative to control; assay type: functional
[9] = test system: Homo sapiens; test: In vivo inhibition of BACE1 in human assessed as reduction in amyloidbeta40 level in CSF at 50 mg relative to control; assay type: functional
[10] = test system: Homo sapiens; test: In vivo inhibition of BACE1 in human assessed as reduction in amyloidbeta40 level in CSF at 100 mg relative to control; assay type: functional
[11] = test system: Homo sapiens; test: In vivo inhibition of BACE1 in human assessed as reduction in amyloidbeta40 level in CSF at 200 mg relative to control; assay type: functional
[12] = target: T1, Beta-secretase 1 (Homo sapiens, UniProt P56817); test: Inhibition of BACE1 (unknown origin) by cell-based assay
T1 sequence (P56817 whole entry, the tested form may be a part): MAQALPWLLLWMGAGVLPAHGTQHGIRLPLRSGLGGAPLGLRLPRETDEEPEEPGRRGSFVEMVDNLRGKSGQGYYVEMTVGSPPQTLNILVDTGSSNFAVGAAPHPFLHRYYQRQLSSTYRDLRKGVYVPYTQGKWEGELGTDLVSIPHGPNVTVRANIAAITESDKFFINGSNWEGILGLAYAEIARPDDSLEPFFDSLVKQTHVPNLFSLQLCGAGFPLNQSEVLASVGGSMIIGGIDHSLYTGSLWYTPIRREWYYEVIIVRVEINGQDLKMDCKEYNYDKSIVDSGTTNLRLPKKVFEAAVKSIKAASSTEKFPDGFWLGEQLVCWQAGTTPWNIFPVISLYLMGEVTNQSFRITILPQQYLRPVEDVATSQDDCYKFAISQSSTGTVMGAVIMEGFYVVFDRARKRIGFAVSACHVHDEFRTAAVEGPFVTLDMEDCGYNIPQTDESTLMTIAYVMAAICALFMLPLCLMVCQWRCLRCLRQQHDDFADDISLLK

[13] = target: T1, Beta-secretase 1; test: Inhibition of human BACE1 catalytic domain preincubated for 30 mins followed by QSY7-EISEVNLDAEFC-Europium-amide substrate addition and measured after […] by HTRF assay
[14] = target: T2, Beta-secretase 2 (Homo sapiens, UniProt Q9Y5Z0); test: Inhibition of human BACE2 preincubated for 30 mins followed by QSY7- EISEVNLDAEFC-Eu-amide substrate addition and measured after […] by HTRF assay
T2 sequence (Q9Y5Z0 whole entry): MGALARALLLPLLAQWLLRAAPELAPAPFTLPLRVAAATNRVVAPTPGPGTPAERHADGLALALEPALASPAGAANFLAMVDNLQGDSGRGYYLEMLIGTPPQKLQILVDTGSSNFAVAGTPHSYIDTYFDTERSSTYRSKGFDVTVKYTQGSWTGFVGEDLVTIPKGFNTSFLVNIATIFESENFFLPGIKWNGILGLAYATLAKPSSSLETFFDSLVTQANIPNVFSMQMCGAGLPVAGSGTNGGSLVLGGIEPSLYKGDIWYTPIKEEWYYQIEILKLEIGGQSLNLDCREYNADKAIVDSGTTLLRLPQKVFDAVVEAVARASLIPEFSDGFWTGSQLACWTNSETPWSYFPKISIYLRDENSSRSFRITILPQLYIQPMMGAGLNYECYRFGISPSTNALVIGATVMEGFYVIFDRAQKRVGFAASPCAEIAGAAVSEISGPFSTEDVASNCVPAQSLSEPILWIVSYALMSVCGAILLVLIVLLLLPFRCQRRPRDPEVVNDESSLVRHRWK

[15] = test system: Rattus norvegicus; test: In vivo inhibition of BACE1 in CD-IGS rat assessed as reduction in amyloidbeta 40 level in CSF at 10 mg/kg, po measured at 3 hrs post dose by sandwich ELISA relative to control; assay type: functional
[16] = target: T1, Beta-secretase 1; test: Inhibition of BACE1 (unknown origin) expressed in CHO-K1 cells using Biotin-GLTNIKTEEISEISYAEVEFR-C[Oregon Green]KK-OH as substrate incubated for 3 hrs by fluorescence polarization
[17] = target: T1, Beta-secretase 1; test: Inhibition of BACE1 in human H4 cells transfected with APP695 assessed as […] incubated for 18 hrs by ELISA; assay type: cell-based
[18] = target: Voltage-gated inwardly rectifying potassium channel KCNH2 (Homo sapiens, UniProt Q12809); test: Inhibition of human ERG expressed in CHO cells at holding potential of -80 mV by patch clamp method; assay type: cell-based
Sequence of Voltage-gated inwardly rectifying potassium channel KCNH2 (Q12809 whole entry): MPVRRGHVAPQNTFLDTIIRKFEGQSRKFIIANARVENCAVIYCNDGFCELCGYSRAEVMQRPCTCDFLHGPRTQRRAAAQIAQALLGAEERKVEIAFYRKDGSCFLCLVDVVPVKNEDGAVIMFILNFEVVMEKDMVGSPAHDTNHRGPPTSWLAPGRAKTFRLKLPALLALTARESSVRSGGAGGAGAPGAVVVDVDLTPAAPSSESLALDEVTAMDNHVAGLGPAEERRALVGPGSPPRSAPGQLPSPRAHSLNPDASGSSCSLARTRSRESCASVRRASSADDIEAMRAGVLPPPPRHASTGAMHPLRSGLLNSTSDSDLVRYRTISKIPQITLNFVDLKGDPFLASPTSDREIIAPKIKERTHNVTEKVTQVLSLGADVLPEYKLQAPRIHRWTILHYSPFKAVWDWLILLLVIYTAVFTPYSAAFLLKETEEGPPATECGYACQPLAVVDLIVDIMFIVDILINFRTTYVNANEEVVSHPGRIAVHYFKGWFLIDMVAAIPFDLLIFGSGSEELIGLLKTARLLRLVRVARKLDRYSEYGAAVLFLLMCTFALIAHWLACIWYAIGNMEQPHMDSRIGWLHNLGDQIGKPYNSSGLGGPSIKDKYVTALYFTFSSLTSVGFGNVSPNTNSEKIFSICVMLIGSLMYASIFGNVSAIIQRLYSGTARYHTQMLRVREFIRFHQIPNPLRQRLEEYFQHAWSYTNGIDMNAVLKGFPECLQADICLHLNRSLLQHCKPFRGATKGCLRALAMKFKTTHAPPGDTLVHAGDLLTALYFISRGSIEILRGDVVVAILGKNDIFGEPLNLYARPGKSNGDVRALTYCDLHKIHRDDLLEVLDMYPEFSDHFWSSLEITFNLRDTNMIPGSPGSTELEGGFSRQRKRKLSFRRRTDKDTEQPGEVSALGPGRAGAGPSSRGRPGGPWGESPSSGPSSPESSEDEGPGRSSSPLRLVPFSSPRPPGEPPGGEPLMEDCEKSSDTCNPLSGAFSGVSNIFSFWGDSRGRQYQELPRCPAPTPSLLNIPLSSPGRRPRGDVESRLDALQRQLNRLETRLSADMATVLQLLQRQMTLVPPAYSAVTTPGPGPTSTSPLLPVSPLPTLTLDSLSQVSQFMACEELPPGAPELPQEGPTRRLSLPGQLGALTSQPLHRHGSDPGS

[19] = target: P-glycoprotein (ABCB1) (Homo sapiens, UniProt P08183); test: Substrate activity at P-glycoprotein (unknown origin) in MDCK-MDR1 cells assessed as efflux ratio; assay type: ADME, cell-based
Sequence of P-glycoprotein (ABCB1) (P08183 whole entry): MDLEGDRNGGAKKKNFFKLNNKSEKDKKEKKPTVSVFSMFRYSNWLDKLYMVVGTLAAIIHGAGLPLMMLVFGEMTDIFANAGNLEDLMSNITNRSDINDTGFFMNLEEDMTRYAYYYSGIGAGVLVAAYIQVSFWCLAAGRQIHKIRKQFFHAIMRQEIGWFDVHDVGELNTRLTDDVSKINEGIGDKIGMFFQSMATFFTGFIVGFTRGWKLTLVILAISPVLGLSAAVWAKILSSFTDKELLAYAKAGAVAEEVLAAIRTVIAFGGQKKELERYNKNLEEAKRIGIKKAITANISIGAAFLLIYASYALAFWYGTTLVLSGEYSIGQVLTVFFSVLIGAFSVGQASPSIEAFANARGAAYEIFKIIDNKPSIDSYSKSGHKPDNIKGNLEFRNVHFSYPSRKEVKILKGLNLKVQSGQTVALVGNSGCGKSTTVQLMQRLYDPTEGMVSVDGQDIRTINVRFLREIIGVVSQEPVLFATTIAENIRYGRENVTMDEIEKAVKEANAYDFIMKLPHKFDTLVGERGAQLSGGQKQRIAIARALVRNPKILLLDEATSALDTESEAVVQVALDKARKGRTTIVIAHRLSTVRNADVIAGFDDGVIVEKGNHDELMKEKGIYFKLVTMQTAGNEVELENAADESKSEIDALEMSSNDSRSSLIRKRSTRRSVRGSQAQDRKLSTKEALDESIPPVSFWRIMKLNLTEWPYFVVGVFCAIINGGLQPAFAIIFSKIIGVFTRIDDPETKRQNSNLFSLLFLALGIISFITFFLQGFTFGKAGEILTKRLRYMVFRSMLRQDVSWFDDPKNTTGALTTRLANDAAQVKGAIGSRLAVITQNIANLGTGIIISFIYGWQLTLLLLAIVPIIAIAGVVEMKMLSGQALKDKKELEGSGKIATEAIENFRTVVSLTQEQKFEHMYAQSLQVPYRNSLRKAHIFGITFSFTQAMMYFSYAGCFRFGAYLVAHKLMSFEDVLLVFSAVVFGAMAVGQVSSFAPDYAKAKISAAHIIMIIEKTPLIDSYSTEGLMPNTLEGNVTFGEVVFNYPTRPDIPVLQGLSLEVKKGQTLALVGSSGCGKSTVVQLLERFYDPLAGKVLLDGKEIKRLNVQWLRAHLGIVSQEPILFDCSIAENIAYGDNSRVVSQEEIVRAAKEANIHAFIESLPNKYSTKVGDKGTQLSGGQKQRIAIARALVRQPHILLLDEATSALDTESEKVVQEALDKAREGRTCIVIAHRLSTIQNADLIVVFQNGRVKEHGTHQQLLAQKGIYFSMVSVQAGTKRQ

[20] = target: T1, Beta-secretase 1; test: Inhibition of human BACE1 using biotin-XSEVNLDAEFRHDSGC-Eu as substrate incubated for 3 hrs by fluorescence method
[21] = test system: Homo sapiens; test: In vivo inhibition of BACE1 in human assessed as reduction in amyloidbeta40 level in CSF at 85 mg, qd administered for 3 months relative to control; assay type: functional
[22] = test system: Homo sapiens; test: In vivo inhibition of BACE1 in human assessed as reduction in amyloidbeta40 level in CSF at 30 mg administered once daily after 14 days relative to baseline; assay type: functional
[23] = test system: Homo sapiens; test: In vivo inhibition of BACE1 in human assessed as reduction in amyloidbeta40 level in CSF at 50 mg administered once daily after 14 days relative to baseline; assay type: functional
[24] = test system: Homo sapiens; test: In vivo inhibition of BACE1 in human assessed as reduction in amyloidbeta40 level in CSF at 90 mg administered once daily after 14 days relative to baseline; assay type: functional
[25] = test system: Rattus norvegicus; test: In vivo inhibition of BACE1 in Sprague Dawley rat assessed as reduction in amyloidbeta 40 level in brain at 10 mg/kg, po measured at 3 hrs post dose by ELISA relative to control; assay type: functional
[26] = test system: Rattus norvegicus; test: In vivo inhibition of BACE1 in Sprague Dawley rat assessed as reduction in amyloidbeta 40 level in brain at 30 mg/kg, po measured at 3 hrs post dose by ELISA relative to control; assay type: functional
[27] = Brain to plasma partition coefficient, Kp of the compound in Sprague Dawley rat at 10 mg/kg, po; assay type: ADME, organism-based
[28] = Brain to plasma partition coefficient, Kp of the compound in Sprague Dawley rat at 30 mg/kg, po; assay type: ADME, organism-based

SMILES: CN1C(N)=N[C@](C)(c2cc(NC(=O)c3ccc(F)cn3)ccc2F)CS1(=O)=O [VERUBECESTAT]
inhibition (INH) [1]: 57% | inhibition (INH) [2]: 79% | inhibition (INH) [3]: 84%

SMILES: C[C@H]1C[C@H]2CSC(N)=N[C@@]2(c2nc(NC(=O)c3ccc(OC(F)F)cn3)cs2)CO1
inhibition (INH) [4]: 69% | inhibition (INH) [5]: 84% | inhibition (INH) [6]: 93% | pKa [7]: 6.9

SMILES: C[C@H]1OC[C@]2(c3cc(NC(=O)c4cnc(C(F)F)cn4)ccc3F)N=C(N)SC[C@H]12 [ELENBECESTAT]
inhibition (INH) [8]: 56% | inhibition (INH) [9]: 71% | inhibition (INH) [10]: 83% | inhibition (INH) [11]: 90% | IC50 [12]: 7 nM

SMILES: COc1cnc2c(Nc3ccc(F)c([C@]4(C)CS(=O)(=O)N(C)C(N)=N4)c3)nccc2c1
Ki [13]: 2.6 nM | Ki [14]: 3.5 nM | inhibition in vivo at 10 mg/kg [15]: 68%

IC50 [16]: > 100000 nM | IC50 [17]: 13600 nM | pKa [7]: 7 | efflux ratio [19]: 7
SMILES: C[C@H]1C[C@H]2CSC(N)=N[C@@]2(c2ncc(NC(=O)c3ccc(OC(F)F)cn3)s2)CO1
IC50 [18]: 12000 nM

IC50 [20]: 54 nM
SMILES: CC#CC(=O)Nc1ccc(F)c(C2(C)Cc3c(F)cncc3C(N)=N2)c1 (centres undefined)

SMILES: C[C@@]1(c2nc(NC(=O)c3ncc(C(F)(F)F)cc3Cl)ccc2F)CO[C@@](C)(C(F)(F)F)C(N)=N1
inhibition (INH) [21]: >90%

SMILES: C[C@@]1(c2cc(NC(=O)c3ccc(C#N)cn3)ccc2F)C=CSC(N)=N1 [ATABECESTAT]
inhibition (INH) [22]: >80% | inhibition (INH) [23]: >80% | inhibition (INH) [24]: >80%

SMILES: Cc1cc(C#N)cnc1C(=O)Nc1ccc(F)c([C@@]2(C)N=C(N)[C@@](C)(F)CC2(F)F)c1
inhibition in vivo at 10 mg/kg [25]: 66% | inhibition in vivo at 30 mg/kg [26]: 61% | Kp [27]: 0.5 | Kp [28]: 0.5
